According to PubChem BioAssay (NCI):
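Values below derive from 48-hour exposures of cells grown in 96-well plates, with endpoints linearly interpolated between the two concentrations bracketing the appropriate inhibition level. The concentration for full growth arrest is given as TGI.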

Key:
Assay in all cases: DTP human tumour cell line panel, 48 h
786-0 renal = system: 786-0 renal
A498 renal = system: A498 renal
A549 NSCLC = system: A549 NSCLC
CCRF-CEM leukemia = system: CCRF-CEM leukemia
EKVX NSCLC = system: EKVX NSCLC
IGROV1 ovarian = system: IGROV1 ovarian
M19-MEL melanoma = system: M19-MEL melanoma
NCI-H226 lung = system: NCI-H226 lung
NCI-H460 lung = system: NCI-H460 lung
OVCAR-3 ovarian = system: OVCAR-3 ovarian
OVCAR-8 ovarian = system: OVCAR-8 ovarian
SF-539 CNS = system: SF-539 CNS
SK-MEL-28 melanoma = system: SK-MEL-28 melanoma
SK-MEL-5 melanoma = system: SK-MEL-5 melanoma
TK-10 renal = system: TK-10 renal
UACC-257 melanoma = system: UACC-257 melanoma
DU-145 prostate = system: DU-145 prostate
HOP-92 NSCLC = system: HOP-92 NSCLC
SK-MEL-2 melanoma = system: SK-MEL-2 melanoma
SNB-75 CNS = system: SNB-75 CNS

Measured: TGI

Cn1nc(-c2ccccc2)c(N=[N+]=[N-])cc1=O
not listed: DU-145 prostate | HOP-92 NSCLC | SK-MEL-2 melanoma | SNB-75 CNS
> 100 µM: all other assays above

Cc1ncc([N+](=O)[O-])n1CCNS(=O)(=O)CCCn1ccnc1[N+](=O)[O-]
not listed: M19-MEL melanoma
> 100 µM: all other assays above

NC(CCl)=NC1CN2CCC1CC2 (centres undefined)
not listed: M19-MEL melanoma
> 100 µM: all other assays above
